Patent US10144715B2, “Piperazine derivatives as liver X receptor modulators” (priority 2014, dated 2018)
Like-named read-outs stand apart in the source and are kept apart here.

Legend:
[1] = molecular target: Gal4 DNA binding domain fused to the LBD of LXRα in HEK293 cells (Homo sapiens (Human), UniProt Q13133); assay: LXR luciferase transcriptional reporter gene assay, agonist mode, LXRα; assay type: cell-based; conditions: for EC50: read-out: Cell LXRα EC50
[2] = molecular target: Gal4 DNA binding domain fused to the LBD of LXRβ in HEK293 cells (Homo sapiens (Human), UniProt P55055); assay: cell-based
Gal4 DNA binding domain fused to the LBD of LXRβ in HEK293 cells, sequence (P55055 222-460 limits assumed): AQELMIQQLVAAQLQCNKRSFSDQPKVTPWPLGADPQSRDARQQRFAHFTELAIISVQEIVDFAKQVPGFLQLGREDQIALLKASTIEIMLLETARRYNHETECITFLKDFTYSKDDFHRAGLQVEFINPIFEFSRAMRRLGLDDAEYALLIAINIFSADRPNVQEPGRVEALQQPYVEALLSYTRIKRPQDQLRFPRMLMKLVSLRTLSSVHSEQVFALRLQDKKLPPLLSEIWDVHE

Gal4 DNA binding domain fused to the LBD of LXRα in HEK293 cells, sequence (Q13133 209-447): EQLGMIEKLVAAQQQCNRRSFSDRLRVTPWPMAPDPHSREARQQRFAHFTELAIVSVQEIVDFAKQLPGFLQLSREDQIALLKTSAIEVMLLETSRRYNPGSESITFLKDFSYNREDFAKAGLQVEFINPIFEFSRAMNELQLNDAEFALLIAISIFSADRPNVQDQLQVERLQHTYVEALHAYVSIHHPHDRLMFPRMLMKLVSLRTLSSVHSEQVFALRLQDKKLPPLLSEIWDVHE

SMILES	Cell LXRα efficacy [1]	EC50 ([1]; agonist mode) [nM]	also measured
CC(C)[C@H]1CN(c2cccc(S(C)(=O)=O)c2)CCN1C[C@H]1CC[C@@H](C(F)(F)F)CC1 (single isomer, unassigned) [Cpd No 48-11]	53 (101) %	53	–
CC(C)[C@@H]1CN(c2ccc(F)c(S(C)(=O)=O)c2)CCN1C(=O)OCC(F)(F)F [5-4, 2,2,2-trifluoroethyl (R)-4-(4-fluoro-3-(methylsulfonyl)phenyl)-2-isopropylpiperazine-1-carboxylate]	–	–	EC50 [2]: 732 nM
CC(C)[C@@H]1CN(c2cccc(S(C)(=O)=O)c2)CCN1c1ncc(Br)cn1 [7-16, (R)-5-bromo-2-(2-isopropyl-4-(3-(methylsulfonyl)phenyl)piperazin-1-yl)pyrimidine]	1282 (85) %	1280	–
CC(C)[C@@H]1CN(c2ccc(F)c(S(C)(=O)=O)c2)CCN1c1ccc(F)c(C(F)(F)F)n1 [7-33, (R)-4-(4-fluoro-3-(methylsulfonyl)phenyl)-1-(5-fluoro-6-(trifluoromethyl)pyridin-2-yl)-2-isopropylpiperazine]	307 (115) %	307	–
COC(=O)c1cnc(N2CCN(c3ccc(F)c(S(=O)(=O)N(C)Cc4ccc(OC)cc4)c3)C[C@H]2C(C)C)nc1C(F)(F)F [9-3, methyl (R)-2-(4-(4-fluoro-3-(N-(4-methoxybenzyl)-N-methylsulfamoyl)phenyl)-2-isopropylpiperazin-1-yl)-4-(trifluoromethyl)pyrimidine-5-carboxylate]	951 (50) %	951	–
Cc1nc(N2CCN(c3ccc(F)c(S(C)(=O)=O)c3)C[C@@H]2C(C)(C)O)ccc1C(F)(F)F [10-9, (R)-2-(4-(4-fluoro-3-(methylsulfonyl)phenyl)-1-(6-methyl-5-(trifluoromethyl)pyridin-2-yl)piperazin-2-yl)propan-2-ol]	–	> 20000	–
Cc1nc(N2CCN(c3ccc(F)c(S(C)(=O)=O)c3)C[C@H]2C(C)(C)O)ccc1C(F)(F)F [10-10, (S)-2-(4-(4-fluoro-3-(methylsulfonyl)phenyl)-1-(6-methyl-5-(trifluoromethyl)pyridin-2-yl)piperazin-2-yl)propan-2-ol]	13605 (107) %	13600	–
COC(=O)c1ccc(N2CCN(Cc3ccc(C(F)(F)F)c(Cl)c3)C(c3ccccc3)C2)cc1S(C)(=O)=O (stereo not drawn) [46-38, methyl 4-(4-(3-chloro-4-(trifluoromethyl)benzyl)-3-phenylpiperazin-1-yl)-2-(methylsulfonyl)benzoate]	1088 (25) %	1090	–
CS(=O)(=O)c1cccc(N2CCN(Cc3ccc(C(F)(F)F)nc3)C(c3ccc(Br)cc3)C2)c1 (stereo not drawn) [46-61, 2-(4-bromophenyl)-4-(3-(methylsulfonyl)phenyl)-1-((6-(trifluoromethyl)pyridin-3-yl)methyl)piperazine]	–	> 20000	–
CS(=O)(=O)c1cccc(N2CCN(C[C@H]3CCC[C@@H](C(F)(F)F)C3)[C@@H](c3ccc(F)cc3)C2)c1 [48-42, (S)-2-(4-fluorophenyl)-4-(3-(methylsulfonyl)phenyl)-1-(((1S,3R)-3-(trifluoromethyl)cyclohexyl)methyl)piperazine]	–	> 20000	–
CC(C)[C@H]1CN(c2cccc(S(C)(=O)=O)c2)CCN1CC1CCC(C(F)(F)F)NC1 (stereo partly drawn) [48-68, (2S)-2-isopropyl-4-(3-(methylsulfonyl)phenyl)-1-((6-(trifluoromethyl)piperidin-3-yl)methyl)piperazine]	1224 (75) %	–	EC50 ([1]; Biological Test Example 2, agonist mode): 1220 nM
CC(C)[C@@H]1CN(c2ccc(F)c(S(C)(=O)=O)c2)CCN1C(=O)OC1CC(F)(F)C1(F)F (stereo partly drawn) [Cpd No 5-1, 2,2,3,3-tetrafluorocyclobutyl (2R)-4-(4-fluoro-3-(methylsulfonyl)phenyl)-2-isopropylpiperazine-1-carboxylate]	–	–	EC50 [2]: 272 nM
Cc1cnc(N2CCN(c3ccc(F)c(S(C)(=O)=O)c3)C[C@H]2C(C)C)nc1C(F)(F)F [Cpd No 37-3, (R)-2-(4-(4-fluoro-3-(methylsulfonyl)phenyl)-2-isopropylpiperazin-1-yl)-5-methyl-4-(trifluoromethyl)pyrimidine]	–	–	Cell LXRβ efficacy [2]: 11 (96) %; EC50 [2]: 11 nM
